Measurements taken from ChEMBL document CHEMBL4229404, “Druggability Assessment of Targets Used in Kinetic Target-Guided Synthesis” (J Med Chem, 2018).

What was measured:
[1] = molecular target: HTH-type transcriptional regulator EthR (Mycobacterium tuberculosis, UniProt P9WMC1); assay: Inhibition of Mycobacterium tuberculosis EthR
Carbonic anhydrase 2 = Carbonic anhydrase 2 (Homo sapiens, UniProt P00918); assay: Inhibition of CA2 (unknown origin)
Acetylcholinesterase = Acetylcholinesterase (Electrophorus electricus, UniProt O42275)
Sequence of Acetylcholinesterase (O42275 whole entry): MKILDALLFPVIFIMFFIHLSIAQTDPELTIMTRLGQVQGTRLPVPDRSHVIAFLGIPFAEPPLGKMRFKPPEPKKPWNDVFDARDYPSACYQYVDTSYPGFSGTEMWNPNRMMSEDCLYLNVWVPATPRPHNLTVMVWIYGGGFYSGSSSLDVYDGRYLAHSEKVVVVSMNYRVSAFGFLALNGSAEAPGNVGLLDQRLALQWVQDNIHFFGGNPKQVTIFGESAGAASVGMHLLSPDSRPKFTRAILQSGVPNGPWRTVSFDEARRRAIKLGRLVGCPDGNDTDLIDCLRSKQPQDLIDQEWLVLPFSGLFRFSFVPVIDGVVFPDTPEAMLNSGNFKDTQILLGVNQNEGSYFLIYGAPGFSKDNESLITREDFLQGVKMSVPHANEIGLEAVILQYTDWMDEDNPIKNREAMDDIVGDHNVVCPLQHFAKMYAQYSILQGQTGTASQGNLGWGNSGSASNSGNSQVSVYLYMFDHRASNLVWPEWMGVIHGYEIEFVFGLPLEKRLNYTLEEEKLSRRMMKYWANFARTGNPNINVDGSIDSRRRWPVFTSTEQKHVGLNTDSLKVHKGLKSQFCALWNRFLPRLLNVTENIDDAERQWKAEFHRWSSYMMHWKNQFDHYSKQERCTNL
Description: Binding affinity to electric eel AChE after 24 hrs by LC/MS-SIM analysis

Homo sapiens = organism: Homo sapiens; assay: Inhibition of human recombinant 14-3-3 protein at 300 uM after 8 hrs
[2] = molecular target: T1, Bifunctional ligase/repressor BirA (Staphylococcus aureus, UniProt A0A0E7NXW5); assay: Inhibition of Staphylococcus aureus biotin protein ligase by LC/MS-SIM analysis
T1 sequence (A0A0E7NXW5 whole entry): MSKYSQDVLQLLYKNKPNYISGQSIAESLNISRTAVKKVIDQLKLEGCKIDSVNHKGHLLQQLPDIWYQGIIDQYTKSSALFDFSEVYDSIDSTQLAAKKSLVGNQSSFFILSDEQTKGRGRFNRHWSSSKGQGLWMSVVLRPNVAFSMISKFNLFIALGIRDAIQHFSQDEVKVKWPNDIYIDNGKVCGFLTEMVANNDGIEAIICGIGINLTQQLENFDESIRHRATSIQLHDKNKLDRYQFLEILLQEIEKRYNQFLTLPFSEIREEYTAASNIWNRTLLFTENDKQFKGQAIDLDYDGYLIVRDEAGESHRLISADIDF

Chitinase B = molecular target: T2, Chitinase B (Serratia marcescens, UniProt P11797); assay: Inhibition of Serratia marcescens 6x-His-tagged ChiB after 20 hrs by LCMS-SIR analysis
T2 sequence (P11797 whole entry): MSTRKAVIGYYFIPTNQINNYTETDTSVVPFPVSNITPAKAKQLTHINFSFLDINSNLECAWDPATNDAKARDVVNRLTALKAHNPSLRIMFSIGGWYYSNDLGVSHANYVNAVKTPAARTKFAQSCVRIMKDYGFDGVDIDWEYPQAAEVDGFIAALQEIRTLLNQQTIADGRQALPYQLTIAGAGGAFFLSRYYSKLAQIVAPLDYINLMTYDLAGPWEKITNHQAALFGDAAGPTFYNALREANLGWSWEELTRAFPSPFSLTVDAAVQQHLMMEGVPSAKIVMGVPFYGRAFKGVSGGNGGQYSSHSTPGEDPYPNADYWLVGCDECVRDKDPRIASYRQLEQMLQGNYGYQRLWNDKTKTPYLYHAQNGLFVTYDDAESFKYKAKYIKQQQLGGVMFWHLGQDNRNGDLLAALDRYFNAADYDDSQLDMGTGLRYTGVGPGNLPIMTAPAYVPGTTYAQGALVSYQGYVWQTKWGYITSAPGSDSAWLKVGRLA

Sequence of HTH-type transcriptional regulator EthR (P9WMC1 whole entry): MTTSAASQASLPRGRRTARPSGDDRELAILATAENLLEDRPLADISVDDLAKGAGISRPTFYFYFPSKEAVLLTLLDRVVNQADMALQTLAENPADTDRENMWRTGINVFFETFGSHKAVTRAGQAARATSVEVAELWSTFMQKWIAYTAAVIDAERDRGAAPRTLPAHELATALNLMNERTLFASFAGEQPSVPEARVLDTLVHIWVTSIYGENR

With `O=C(Cn1cc(CNS(=O)(=O)c2ccc(I)cc2)nn1)N1CCC(c2nc(-c3cccs3)no2)CC1` the IC50 [1] was 580 nM.

With `CCOC(=O)c1cccc(CSCc2ccc(S(N)(=O)=O)cc2)c1` the IC50 (Carbonic anhydrase 2) was 59 nM.

Compound `CC[N+](C)(CC)CCC[n+]1c(-c2ccccc2)c2cc(N)ccc2c2ccccc21` has a Kd (Acetylcholinesterase) of 1100 nM.

Compound `C=CC(C)(C)OC[C@H]1O[C@H](O[C@@H]2C3=C([C@H](C)CNC(=O)[C@H]4CO4)C[C@H](O)[C@]3(C)/C=C3/[C@@H](COC)CC[C@@]3(C)[C@@H](C)[C@H]2O)[C@H](O)[C@@H](O)[C@@H]1O` has an inhibition (Homo sapiens) of 37%.

`Nc1ncnc2c1ncn2CCCCn1cc(CCCCC[C@@H]2SC[C@@H]3NC(=O)N[C@@H]32)nn1` gave a Ki [2] of 660 nM.

`[H]/N=C(/NCCC[C@H](NC(=O)Cn1nncc1CO/N=C/c1ccnc2ccccc12)C(=O)N(Cc1ccccc1)Cc1ccccc1)NC(=O)NC` was tested, and the IC50 (Chitinase B) was 22 nM.
